Where two headings read alike, the source gives them in different places.

The assay concerns the target AaORCO+AaOR8 receptors (Aedes aegypti, UniProt A0A1S4FVR6). Put plainly: Automatic planar patch-clamp electrophysiology in U2OS cells co-transduced with AaORCO and AaOR8. Type of assay: cell-based. The procedure: In this example, U2OS cells were co-transduced with AaORCO and AaOR8 channel subunits overnight and stimulated with increasing concentrations of 1-octen-3-ol ligand in the absence and presence of 10 μM VUAA1.
Cell culture and transduction. U2OS and HEK293 cells were grown on T150 flasks with Dulbecco's modified eagle medium supplemented with 10% fetal bovine serum and 1% Penicillin/Streptomycin in a 37° C. incubator under a 5% CO2 atmosphere. For transductions, cell cultures were pooled at 1.5×10^6 cell/ml, centrifuged at 1000 xg for 5 min, and resuspended in fresh medium. Resuspended cultures were inoculated at a multiplicity of 1-20 pfu/cell with baculovirus encoding AaORCO or AaORCO with AaOR8, AaOR2 or AaOR11 and AgORCO with AgOR8 or AgOR2. A further untransduced culture was used as a control. Cultures were maintained in an incubator at 37° C. and used for electrophysiology or FLIPR measurements 1-4 days after infection.
Planar Patch Clamp Electrophysiology Assay. […] On the day of the assay, the cells were lifted, washed once in PBS and loaded on a Nanion Synchropatch384 instrument and currents were recorded using voltage clamp in standard whole-cell configuration at-90 mV on an 8-hole version chip (NPC-384T).
In general terms: The patch-clamp technique gives a direct electrical read-out from membranes.

Sequence of AaORCO+AaOR8 receptors (Q178U6 whole entry): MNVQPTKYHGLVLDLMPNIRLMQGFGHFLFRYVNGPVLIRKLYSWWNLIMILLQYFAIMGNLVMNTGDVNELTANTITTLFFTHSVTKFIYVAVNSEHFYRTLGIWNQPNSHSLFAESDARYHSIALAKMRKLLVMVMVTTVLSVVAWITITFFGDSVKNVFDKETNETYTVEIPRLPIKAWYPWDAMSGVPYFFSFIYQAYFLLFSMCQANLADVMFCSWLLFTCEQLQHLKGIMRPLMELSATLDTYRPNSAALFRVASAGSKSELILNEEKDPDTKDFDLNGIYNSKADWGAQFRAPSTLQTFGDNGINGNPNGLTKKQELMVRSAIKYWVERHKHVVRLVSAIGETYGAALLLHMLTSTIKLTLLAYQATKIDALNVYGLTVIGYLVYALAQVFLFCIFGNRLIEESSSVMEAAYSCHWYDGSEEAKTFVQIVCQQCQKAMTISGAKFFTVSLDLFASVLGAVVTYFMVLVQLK
Sequence of AaORCO+AaOR8 receptors (A0A1S4FVR6 entry or part of it): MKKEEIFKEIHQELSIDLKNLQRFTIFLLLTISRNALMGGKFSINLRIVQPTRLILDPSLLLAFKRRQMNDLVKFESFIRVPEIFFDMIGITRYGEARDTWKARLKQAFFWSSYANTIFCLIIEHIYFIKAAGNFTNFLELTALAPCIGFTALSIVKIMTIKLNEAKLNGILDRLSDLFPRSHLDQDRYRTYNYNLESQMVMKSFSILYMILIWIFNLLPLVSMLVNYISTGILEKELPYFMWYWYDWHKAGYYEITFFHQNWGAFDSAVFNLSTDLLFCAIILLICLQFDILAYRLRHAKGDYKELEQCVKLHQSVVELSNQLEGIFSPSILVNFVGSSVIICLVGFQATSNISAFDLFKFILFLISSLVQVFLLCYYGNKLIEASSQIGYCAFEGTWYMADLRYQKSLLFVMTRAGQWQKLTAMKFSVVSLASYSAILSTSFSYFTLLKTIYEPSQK

As to `C=CC(O)CCCCC` (centres unmarked) [1-octen-3-ol], the EC50 (absence of VUAA1, read-out: EC50, dose-dependent activation of AaORCO+AaOR8 channel currents) turned out to be 537 nM and the EC50 (presence of 10 μM VUAA1, read-out: EC50, activation of AaORCO+AaOR8 channel currents in the presence of VUAA1 (left-shift)) amounted to 101 nM.

The values above are taken from patent US20250368699A1, “ARTHROPOD CHEMOSENSORY RECEPTORS AND USES THEREOF” (Firmenich Incorporated, priority 2022, published 2025).
